Results as given in paper PMC4721923 (PLoS ONE, 2015).

Columns and labels:
OCT1 = target: T1, OCT1 (Homo sapiens, UniProt O15245); test: Michaelis-Menten kinetics of ASP+ uptake, HEK-OCT1; assay type: cell-based
T1 construct: containing the full length SLC22A1 cDNA (NM_003057) encoding the human OCT1 protein; expressed in transfected cells
T1 sequence (O15245 1-554): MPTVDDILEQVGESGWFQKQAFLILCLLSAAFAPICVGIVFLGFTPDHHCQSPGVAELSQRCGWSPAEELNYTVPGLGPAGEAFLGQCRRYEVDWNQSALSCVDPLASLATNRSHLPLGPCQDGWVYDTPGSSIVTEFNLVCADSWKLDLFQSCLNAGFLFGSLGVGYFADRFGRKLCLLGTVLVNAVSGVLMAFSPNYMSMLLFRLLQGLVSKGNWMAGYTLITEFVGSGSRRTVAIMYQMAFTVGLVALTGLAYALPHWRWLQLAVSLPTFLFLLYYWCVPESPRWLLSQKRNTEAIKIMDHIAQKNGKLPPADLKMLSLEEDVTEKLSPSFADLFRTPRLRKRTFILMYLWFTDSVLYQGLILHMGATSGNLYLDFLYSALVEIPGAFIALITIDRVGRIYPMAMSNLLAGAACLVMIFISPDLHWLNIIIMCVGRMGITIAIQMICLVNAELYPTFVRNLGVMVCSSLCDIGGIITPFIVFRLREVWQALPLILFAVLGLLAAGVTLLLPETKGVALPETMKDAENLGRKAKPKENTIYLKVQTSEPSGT
Description: (§1) The previously described fluorescent substrate of organic cation transporters, 4-(4-dimethylaminostyryl)-N-methylpyridinium (ASP^+), was used to determine the function of OCT1 and OCT3 by flow cytometry in the absence and the presence of bendamustine and selected bendamustine esters. HEK293 cells expressing the transporter of interest were trypsinized and washed twice with PBS, prior to re-suspension of 0.5 · 10^6 cells in 500 μL of PBS containing 2% (v/v) FCS. The cells were incubated with ASP^+ (100 μM stock solution in PBS containing 10% DMSO) for 5 minutes, allowing for cellular accumulation, and subsequently analyzed with a FACSCalibur flow cytometer. ASP^+ was excited at 488 nm and the fluorescence was measured using a 530/30 nm and a 585/42 band-pass filter. At least 1 · 10^4 single cells were analyzed by appropriate FSC/SSC gating.
(§2) Subsequently, two volumes of an ice-cold 200 μM solution of the standard inhibitor of OCT1 and OCT3, tetrapentyl ammonium (TPA), in PBS/FCS were added to one volume of cell suspension. The mixture was immediately analyzed. The mean fluorescence intensities (MFI) were calculated using FlowJo V10, and the difference between total (HEK-OCT1 or HEK-OCT3 cells) and unspecific (HEK-Co cells) uptake was plotted as specific uptake against the concentration of ASP^+. […] Km was calculated according to the Michaelis-Menten equation using GraphPad Prism 5.01.

OCT3 = target: T2, OCT3 (Homo sapiens, UniProt O75751); test: Michaelis-Menten kinetics of ASP+ uptake, HEK-OCT3; assay type: cell-based
T2 construct: expressed in transfected cells; host or cells: HEK293 (HEK-OCT3)
T2 sequence (O75751 1-556): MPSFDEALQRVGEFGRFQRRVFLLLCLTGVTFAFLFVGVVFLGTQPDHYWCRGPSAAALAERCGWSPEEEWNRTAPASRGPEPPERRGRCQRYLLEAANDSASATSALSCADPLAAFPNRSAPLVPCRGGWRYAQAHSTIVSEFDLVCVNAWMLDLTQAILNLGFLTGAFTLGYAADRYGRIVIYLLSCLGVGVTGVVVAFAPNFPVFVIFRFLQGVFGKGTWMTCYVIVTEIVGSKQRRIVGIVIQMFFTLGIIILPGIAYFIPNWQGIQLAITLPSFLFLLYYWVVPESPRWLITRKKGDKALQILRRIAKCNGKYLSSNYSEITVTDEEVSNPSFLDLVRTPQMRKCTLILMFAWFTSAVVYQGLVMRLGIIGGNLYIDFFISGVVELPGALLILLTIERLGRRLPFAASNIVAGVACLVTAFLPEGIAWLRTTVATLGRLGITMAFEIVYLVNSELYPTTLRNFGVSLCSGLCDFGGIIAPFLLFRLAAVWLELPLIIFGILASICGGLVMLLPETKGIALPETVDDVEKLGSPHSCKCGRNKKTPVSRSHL
Description: as §1, §2

[1] = system: Jurkat cells (acute T-cell leukemia); test: Chemosensitivity assay (MTT-assay), Jurkat; assay type: cell-based, human; details: Homo sapiens, 96 h, 96 hours of incubation, mean ± SEM
Description: (§3) Depending on the characteristics of the cells, two different assays were performed. For adherently growing cells (HaCaT, HT-29, NCI-H460, SK-MEL-3, MG-63, Capan-1), cytotoxic and cytocidal effects were determined in the crystal violet assay, whereas for loosely adherent cells (LNCaP, SK-ES-1) and cells growing in suspension (HEL 92.1.7, Jurkat, U-937) the MTT-assay was used with minor modifications. In brief, 1.5 · 10^3 (HaCaT, HT-29, NCI-H460, SK-MEL-3, MG-63, Capan-1) or 5 · 10^3 (Jurkat, U-937, HEL92.1.7, LNCaP, SK-ES-1) cells per well were seeded into flat-bottom 96-well plates (Sarstedt, Nümbrecht, Germany). All compounds were used as solutions prepared in DMSO and tested at final concentrations (8 replicates per concentration) of 1, 3, 10, 30 and 50 μM. In case of the vehicle control and test compounds, the final DMSO concentration amounted to 0.1%. Absorbance was measured at 580 nm in a 96-well plate reader (GENios pro microplate reader, Tecan, Salzburg, Austria). Effects were quantified as previously described for both assays.

[2] = system: HT-29 cells (colorectal adenocarcinoma); test: Chemosensitivity assay (crystal violet assay), HT-29; assay type: cell-based, human; details: Homo sapiens, 96 hours of incubation, mean ± SEM, read-out: IC50
Description: as §3

[3] = system: NCI-H460 cells (large cell lung cancer); test: Chemosensitivity assay (crystal violet assay), NCI-H460; assay type: cell-based, human; details: Homo sapiens, 96 hours of incubation, mean ± SEM, read-out: IC50
Description: as §3

[4] = system: MG-63 cells (osteosarcoma); test: Chemosensitivity assay (crystal violet assay), MG-63; assay type: cell-based, human; details: Homo sapiens, MG-63, 96 h, 96 hours of incubation, crystal violet assay, mean ± SEM
Description: as §3

[5] = system: HEL 92.1.7 cells (erythroleukemia); test: Chemosensitivity assay (MTT-assay), HEL 92.1.7; assay type: cell-based, human; details: Homo sapiens, HEL 92.1.7, 96 h, 96 hours of incubation, mean ± SEM
Description: as §3

[6] = system: SK-ES-1 cells (Ewing's sarcoma); test: Chemosensitivity assay (MTT-assay), SK-ES-1; assay type: cell-based, human; details: 96 hours of incubation, mean ± SEM
Description: as §3

[7] = system: U-937 cells (histiocytic lymphoma); test: Chemosensitivity assay (MTT-assay), U-937; assay type: cell-based, human; details: Homo sapiens, U-937, 96 h, 96 hours of incubation, mean ± SEM
Description: as §3

[8] = system: Capan-1 cells (pancreatic adenocarcinoma); test: Chemosensitivity assay (crystal violet assay), Capan-1; assay type: cell-based, human; details: Homo sapiens, CAPAN-1, 96 h, 96 hours of incubation, mean ± SEM
Description: as §3

[9] = system: SK-MEL-3 cells (malignant melanoma); test: Chemosensitivity assay (crystal violet assay), SK-MEL-3; assay type: cell-based, human; details: Homo sapiens, SK-MEL3, 96 hours of incubation, mean ± SEM, read-out: IC50
Description: as §3

[10] = system: LNCaP cells (prostate cancer); test: Chemosensitivity assay (MTT-assay), LNCaP; assay type: cell-based, human; details: Homo sapiens, 96 hours of incubation, mean ± SEM, read-out: IC50
Description: as §3

[11] = substrate: CN(C)c1ccc(/C=C/c2cc[n+](C)cc2)cc1; test: Michaelis-Menten kinetics of ASP+ uptake, HEK-OCT1; assay type: cell-based, human; details: other: HEK-OCT1; substrate uptake, flow cytometry; 37.0 °C
Description: as §1, §2

[12] = substrate: CN(C)c1ccc(/C=C/c2cc[n+](C)cc2)cc1; test: Michaelis-Menten kinetics of ASP+ uptake, HEK-OCT3; assay type: cell-based, human; details: other: HEK-OCT3; substrate uptake, flow cytometry; 37.0 °C
Description: as §1, §2

## CN(C)c1ccc(C=Cc2cc[n+](C)cc2)cc1.[I-] [ASP^+, 4-[4-(dimethylamino)styryl]-N-methylpyridinium iodide]
OCT1
  vmax (maximal uptake rate): 2808 ± 78 MFI/(10^4 cells · min)
OCT3
  vmax (maximal uptake rate): 5321 ± 89 MFI/(10^4 cells · min)

## CCOC(=O)CCCc1nc2cc(N(CCCl)CCCl)ccc2n1C [Compound 3]
[1]
  IC50: 3800 ± 40 nM
[2]
  IC50: 10000 ± 100 nM
[3]
  IC50: 4800 ± 100 nM
[4]
  IC50: 2100 ± 60 nM
[5]
  IC50: 2900 ± 200 nM
[6]
  IC50: 180 ± 10 nM
[6]; Homo sapiens, SK-ES1, 96 h
  IC50: ~200 nM
[7]
  IC50: 1900 ± 10 nM
[8]
  IC50: 1000 ± 10 nM
[9]
  IC50: 21700 ± 4100 nM
[10]
  IC50: 1500 ± 100 nM

## Cn1c(CCCC(=O)OCCN2CCCCC2)nc2cc(N(CCCl)CCCl)ccc21 [Compound 6]
[1]
  IC50: 830 ± 10 nM
[2]
  IC50: 1700 ± 100 nM
[3]
  IC50: 1200 ± 100 nM
[4]
  IC50: 530 ± 10 nM
[5]
  IC50: 1300 ± 100 nM
[6]; Homo sapiens, SK-ES1, 96 h
  IC50: 190 ± 10 nM
[7]
  IC50: 1100 ± 200 nM
[8]
  IC50: 170 ± 10 nM
[9]
  IC50: 1240 ± 100 nM
[10]
  IC50: 750 ± 30 nM

## CN1CCN(CCOC(=O)CCCc2nc3cc(N(CCCl)CCCl)ccc3n2C)CC1 [Compound 7]
[1]
  IC50: 900 ± 30 nM
[2]
  IC50: 2400 ± 100 nM
[3]
  IC50: 1200 ± 100 nM
[4]
  IC50: 550 ± 10 nM
[5]
  IC50: 1700 ± 100 nM
[6]; Homo sapiens, SK-ES1, 96 h
  IC50: 190 ± 30 nM
[7]
  IC50: 1300 ± 300 nM
[8]
  IC50: 250 ± 20 nM
[9]
  IC50: 1000 ± 270 nM
[10]
  IC50: 930 ± 120 nM

B1: human OCT1 (Homo sapiens) (protein)
chain: T1 sequence (O15245 1-554)
notes: containing the full length SLC22A1 cDNA (NM_003057) encoding the human OCT1 protein; expressed in transfected cells
[11]
  Km: 3.1 ± 0.1 µM

B2: OCT3 (Homo sapiens) (protein)
chain: T2 sequence (O75751 1-556)
notes: expressed in transfected cells; host or cells: HEK293 (HEK-OCT3)
[12]
  Km: 2.7 ± 0.1 µM
